Test results as given in PubChem BioAssay (NCI).
Values joined by “and” are separate entries in the source; they are usually repeats but may differ in a detail not shown here. Equal entries are not always repeated.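 Five compound concentrations were applied to cells in 96-well plates for 48 hours; endpoints were derived by simple linear interpolation of the resulting dose-response curve. At the GI50, growth is halved. The concentration for full growth arrest is given as TGI.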

Tests used:
Assay in all cases: NCI anticancer screen, dose series, 48 h
HL-60(TB) leukemia = tested on: HL-60(TB) leukemia
SNB-19 CNS = tested on: SNB-19 CNS
NCI/ADR-RES ovarian = tested on: NCI/ADR-RES ovarian
OVCAR-4 ovarian = tested on: OVCAR-4 ovarian
MDA-MB-435 = tested on: MDA-MB-435
OVCAR-8 ovarian = tested on: OVCAR-8 ovarian
786-0 renal = tested on: 786-0 renal
NCI-H460 lung = tested on: NCI-H460 lung
HS 578T breast = tested on: HS 578T breast
UACC-62 melanoma = tested on: UACC-62 melanoma

Structure (SMILES) | TGI (HL-60(TB) leukemia) | TGI (SNB-19 CNS) [µM] | TGI (NCI/ADR-RES ovarian) [µM] | TGI (OVCAR-4 ovarian) [µM] | TGI (MDA-MB-435) [µM] | TGI (OVCAR-8 ovarian) [µM] | TGI (786-0 renal) [µM] | TGI (NCI-H460 lung) [µM] | TGI (HS 578T breast) [µM] | TGI (UACC-62 melanoma) [µM] | GI50 (HL-60(TB) leukemia) [µM] | GI50 (SNB-19 CNS) [µM] | GI50 (NCI/ADR-RES ovarian) [µM] | GI50 (OVCAR-4 ovarian) [µM] | GI50 (MDA-MB-435) [µM] | GI50 (OVCAR-8 ovarian) [µM] | GI50 (NCI-H460 lung) [µM] | GI50 (HS 578T breast) [µM] | GI50 (UACC-62 melanoma) [µM]
COC1/C=C\OC2(C)Oc3c(C)c(O)c4c(O)c(c(/C=N\OCCCc5ccccc5)c(O)c4c3C2=O)NC(=O)/C(C)=C\C=C/C(C)C(O)C(C)C(O)C(C)C(OC(C)=O)C1C (stereo unspecified) | 5.38 µM | 19.7 | 13.4 | 12.6 | 9.28 | 17.8 | 9.81 | 15.6 | 25.2 | 10.1 | – | – | – | – | – | – | – | – | –
CCN=C=NCCCN(C)C | > 100 µM | > 100 | > 100 | > 100 | > 100 | > 100 | > 100 | > 100 | > 100 | > 100 | – | – | – | – | – | – | – | – | –
CN1CCC(C(=O)NNc2ccccc2)CC1 | > 100 µM | > 100 | – | > 100 | – | > 100 | > 100 | > 100 | – | > 33.7 | – | – | – | – | – | – | – | – | –
COc1ccc(-c2nn(-c3ccc(NC(=O)Nc4ccc(Cl)c(Cl)c4)cc3)cc2-c2ccncc2)cc1Cl | 6.6 µM | > 100 | > 100 | > 100 | > 100 | > 100 | – | 8.54 | 7.63 | 7.33 | 2.21 | 3.36 | 2.06 | 1.79 | 2.3 | 2.72 | 2.14 | 1.42 | 2.1
c1ccc(-n2cnnc2-c2nsc3ccccc23)cc1 | > 100 µM | > 100 | – | > 100 | – | > 100 | – | > 100 | – | > 100 | – | – | – | – | – | – | – | – | –
C=C1CC23CCC4C(C)(C(=O)O)CCCC4(C)C2CCC1C3 (stereo unspecified) | – | > 100 | – | > 100 | > 100 | > 100 | > 100 | 59.1 | > 100 | > 100 | – | – | – | – | – | – | – | – | –
O=C(O)CC(C(=O)O)C1c2ccccc2-c2ccccc21 (stereo unspecified) | > 100 µM | > 100 | > 100 | > 100 | > 100 | > 100 | > 100 | > 100 | > 100 | > 100 | – | – | – | – | – | – | – | – | –
COc1cc(C(C)(C)C)cc(OC)c1C(O)(c1c(OC)cc(C(C)(C)C)cc1OC)c1c(OC)cc(C(C)(C)C)cc1OC | 0.394 µM | – | – | 1.06 | 0.974 | – | – | 0.853 | – | – | 0.14 | – | – | 0.307 | 0.306 | – | 0.288 | 0.711 | –
O=Nc1ccc(O)c2ncccc12 | > 41.6 µM | 74.7 | 18.3 | 24.1 | 3.83 | > 34.1 | 14.7 | 12.8 | 3.66 | 2.34 | – | – | – | – | – | – | – | – | –
Nc1cc(S(=O)(=O)O)cc2cc(S(=O)(=O)O)c(N=Nc3ccc(-c4ccc(N=Nc5c(S(=O)(=O)O)cc6cc(S(=O)(=O)O)cc(N)c6c5O)cc4)cc3)c(O)c12 | > 100 µM | > 100 | > 100 | > 100 | – | > 100 | – | > 100 | – | – | – | – | – | – | – | – | – | – | –
OC(Cc1ccccc1)(Cc1ccccc1)c1ccccc1 | 52.8 µM | 67.9 | 71.6 | 32.4 | 33.4 | 39.6 | 29.6 | 44.4 | – | 31.3 | – | – | – | – | – | – | – | – | –
C=C(C)C(=O)OC1C(C(C)CCCO)=C(CO)CC2OC(=O)C(=C)C21 (stereo unspecified) | > 100 µM | > 100 | > 100 | > 100 | 52.1 | > 100 | 25.9 | 37.8 | > 100 | 31.9 | – | – | – | – | – | – | – | – | –
C=C1C(=O)OC2/C=C(\C)C(=O)CC3OC(C)(C)OC3(C)CC(OC(=O)/C(C)=C/C)C12 (stereo unspecified) | > 23.4 µM | > 100 | – | 41.5 | > 68.2 | > 68.9 | > 47.9 | 46.2 | > 100 | 27.8 | – | – | – | – | – | – | – | – | –
O=[N+]([O-])c1ccc(/C=N\Nc2ccc([N+](=O)[O-])cn2)cc1 | > 100 µM | > 100 | > 100 | > 100 | > 100 | > 100 | > 100 | > 100 | > 100 | > 100 | – | – | – | – | – | – | – | – | –
N=C(N)c1ccc(-c2ccc(-c3cncc4ccccc34)s2)cc1F | – | – | – | – | 3.49 | – | – | – | – | – | – | – | – | – | 1.86 | – | – | – | –
C=C(CN(C)C)C(=O)c1ccc(C)cc1C | 11.6 µM | 57.7 | 40.3 | 33.5 | 17.1 | 37.4 | 12.5 | 46.9 | > 79 | 31.5 | – | – | – | – | – | – | – | – | –
O=S(=O)(O)c1cc(N=Nc2cc(S(=O)(=O)O)c3ccccc3c2O)ccc1/C=C/c1ccc(N=Nc2cc(S(=O)(=O)O)c3ccccc3c2O)cc1S(=O)(=O)O | 41.2 µM and 104 µM | > 1000 | > 1000 | > 1000 | 258 | > 1000 | > 1000 | > 881 | 756 | > 628 | 43.4 | – | – | > 807 | – | – | – | – | –
C=C(C)[C@@H]1CC[C@]2(C(=O)Nc3ccccn3)CC[C@]3(C)[C@H](CC[C@@H]4[C@@]5(C)CCCNC(C)(C)[C@@H]5CC[C@]43C)[C@@H]12 | 4.28 µM | 4.26 | 4.14 | 2.99 | – | – | – | 3.3 | 4.42 | 3.12 | 1.82 | 1.98 | 1.93 | 1.44 | – | – | 1.71 | 1.92 | 1.64
C=C(C)C1CC2=C(O1)C(=O)c1ccccc1C2=O (stereo unspecified) | 15 µM | 96.6 | – | 24 | – | 35.6 | – | 33.8 | – | 30.4 | – | – | – | – | – | – | – | – | –
